These results are taken from ChEMBL document CHEMBL4387778, “Dual functional cholinesterase and PDE4D inhibitors for the treatment of Alzheimer's disease: Design, synthesis and evaluation of tacrine-pyrazolo[3,4-b]pyridine hybrids” (Bioorg Med Chem Lett, 2019).

The structures appear in SMILES notation.

Broadly, the IC50 is the concentration at which inhibition is half-maximal. Lower therefore signals inhibition by little substance.

In assay [1] the target is 3',5'-cyclic-AMP phosphodiesterase 4D (Homo sapiens, UniProt Q08499).
Chain of 3',5'-cyclic-AMP phosphodiesterase 4D (Q08499 whole entry): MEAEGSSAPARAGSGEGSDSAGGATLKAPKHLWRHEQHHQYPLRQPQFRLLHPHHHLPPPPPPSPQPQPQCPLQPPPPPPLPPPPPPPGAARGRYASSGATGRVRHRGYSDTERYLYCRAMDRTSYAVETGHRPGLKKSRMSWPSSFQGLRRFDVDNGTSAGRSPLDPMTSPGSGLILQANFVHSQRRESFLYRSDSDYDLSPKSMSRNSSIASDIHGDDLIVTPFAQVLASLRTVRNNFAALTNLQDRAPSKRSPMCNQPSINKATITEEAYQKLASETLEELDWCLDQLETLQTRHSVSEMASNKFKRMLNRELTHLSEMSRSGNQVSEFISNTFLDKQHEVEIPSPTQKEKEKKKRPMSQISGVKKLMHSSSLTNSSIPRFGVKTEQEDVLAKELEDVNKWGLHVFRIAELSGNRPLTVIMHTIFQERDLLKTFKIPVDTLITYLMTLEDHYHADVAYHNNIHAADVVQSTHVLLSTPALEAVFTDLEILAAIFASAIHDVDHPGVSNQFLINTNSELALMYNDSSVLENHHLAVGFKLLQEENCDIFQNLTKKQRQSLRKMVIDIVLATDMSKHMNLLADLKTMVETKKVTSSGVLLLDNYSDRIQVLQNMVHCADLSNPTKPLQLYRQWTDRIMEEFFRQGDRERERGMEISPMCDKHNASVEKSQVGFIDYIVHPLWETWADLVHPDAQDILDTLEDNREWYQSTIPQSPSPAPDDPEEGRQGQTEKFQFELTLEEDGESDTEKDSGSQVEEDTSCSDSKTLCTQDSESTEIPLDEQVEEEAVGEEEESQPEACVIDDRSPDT
Description: Inhibition of recombinant human PDE4D2 catalytic domain (86 to 413 residues) expressed in Escherichia coli BL21 codonplus cells using [3H]cAMP as substrate preincubated for 15 mins followed by substrate addition by liquid scintillation counting method
The target of the next assay is Acetylcholinesterase (Electrophorus electricus, UniProt O42275). As to the kind of experiment: Inhibition of electric eel AchE using acetylthiocholine as substrate by Ellman's method. A general note: DTNB colorimetry detects thiols as they appear.
Chain of Acetylcholinesterase (O42275 whole entry): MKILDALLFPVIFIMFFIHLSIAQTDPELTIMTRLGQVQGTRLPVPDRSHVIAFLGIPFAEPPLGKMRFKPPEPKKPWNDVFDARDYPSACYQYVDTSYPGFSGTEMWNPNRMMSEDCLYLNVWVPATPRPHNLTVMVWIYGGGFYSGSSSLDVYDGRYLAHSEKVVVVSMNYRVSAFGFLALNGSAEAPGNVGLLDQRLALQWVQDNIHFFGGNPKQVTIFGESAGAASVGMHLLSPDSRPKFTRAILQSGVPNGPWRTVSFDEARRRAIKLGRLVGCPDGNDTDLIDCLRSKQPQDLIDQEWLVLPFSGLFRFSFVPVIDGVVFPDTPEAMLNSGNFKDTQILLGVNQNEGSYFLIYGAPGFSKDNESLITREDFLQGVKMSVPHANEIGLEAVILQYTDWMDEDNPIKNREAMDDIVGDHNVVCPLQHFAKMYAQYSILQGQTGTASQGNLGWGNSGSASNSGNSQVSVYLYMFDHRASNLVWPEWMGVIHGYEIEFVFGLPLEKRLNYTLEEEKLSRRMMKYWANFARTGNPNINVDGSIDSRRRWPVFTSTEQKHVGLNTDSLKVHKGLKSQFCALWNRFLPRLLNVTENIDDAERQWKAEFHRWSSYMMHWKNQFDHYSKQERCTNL
The target of a further assay is Cholinesterase (Equus caballus, UniProt P81908). The experiment in a line: Inhibition of equine serum BuchE using butyrylthiocholine as substrate by Ellman's method.
Chain of Cholinesterase (P81908 whole entry): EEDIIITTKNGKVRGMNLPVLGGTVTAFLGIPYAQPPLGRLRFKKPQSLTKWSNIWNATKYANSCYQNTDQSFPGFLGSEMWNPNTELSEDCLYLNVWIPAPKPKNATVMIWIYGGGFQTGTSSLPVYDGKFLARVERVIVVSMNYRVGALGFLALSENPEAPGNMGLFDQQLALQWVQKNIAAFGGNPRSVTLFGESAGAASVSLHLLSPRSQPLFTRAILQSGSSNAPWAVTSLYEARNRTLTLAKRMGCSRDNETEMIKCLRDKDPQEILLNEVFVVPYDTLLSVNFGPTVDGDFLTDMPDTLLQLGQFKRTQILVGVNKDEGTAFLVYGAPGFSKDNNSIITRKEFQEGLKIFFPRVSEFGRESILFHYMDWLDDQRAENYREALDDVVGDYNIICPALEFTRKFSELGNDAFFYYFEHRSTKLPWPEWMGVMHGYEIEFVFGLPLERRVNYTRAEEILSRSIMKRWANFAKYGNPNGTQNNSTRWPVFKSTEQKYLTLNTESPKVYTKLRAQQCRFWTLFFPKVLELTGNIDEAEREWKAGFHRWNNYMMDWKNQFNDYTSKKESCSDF

`CCn1ncc2c(NC3CCCCC3)c(C(=O)NCCCCCCCCNc3c4c(nc5cc(Cl)ccc35)CCCC4)cnc21`: the IC50 in assay [1] was found to be 1080 nM; against Acetylcholinesterase, 812 nM; at Cholinesterase it was 314 nM.
On the same counts, the results for `CCn1ncc2c(NC3CCCCC3)c(C(=O)NCCCCCCCCNc3c4c(nc5ccccc35)CCCC4)cnc21` are 1310 nM, 392 nM and 320 nM.
Taken in the same sequence, the figures for `CCn1ncc2c(NC3CCCCC3)c(C(=O)NCCCCNc3c4c(nc5cc(Cl)ccc35)CCCC4)cnc21` were 87 nM, 335 nM and 1280 nM.
On the same counts, the results for `CCn1ncc2c(NC3CCCCC3)c(C(=O)NCCCCNc3c4c(nc5ccccc35)CCCC4)cnc21` are 108 nM, 333 nM and 889 nM.
Take `CCn1ncc2c(NC3CCCCC3)c(C(=O)NCCCCCCCNc3c4c(nc5ccc(Cl)cc35)CCCC4)cnc21`: the IC50 came to 934 nM in assay [1], 391 nM at Acetylcholinesterase and 245 nM at Cholinesterase.
On the same counts, the results for `CCn1ncc2c(NC3CCCCC3)c(C(=O)NCCNc3c4c(nc5ccccc35)CCCC4)cnc21` are 41 nM, 243 nM and 891 nM.
Regarding `CCn1ncc2c(NC3CCCCC3)c(C(=O)NCCCCCCCNc3c4c(nc5ccccc35)CCCC4)cnc21`, the IC50 came to 1070 nM in assay [1], 316 nM on Acetylcholinesterase and 324 nM against Cholinesterase.
On the same counts, the results for `CCn1ncc2c(NC3CCCCC3)c(C(=O)NCCCCCCNc3c4c(nc5cc(Cl)ccc35)CCCC4)cnc21` are 271 nM, 125 nM and 449 nM.
Taken in the same sequence, the figures for `CCn1ncc2c(NC3CCCCC3)c(C(=O)NCCCCCNc3c4c(nc5ccccc35)CCCC4)cnc21` were 477 nM, 358 nM and 264 nM.
Taken in the same sequence, the figures for `CCn1ncc2c(NC3CCCCC3)c(C(=O)NCCNc3c4c(nc5cc(Cl)ccc35)CCCC4)cnc21` were 25 nM, 412 nM and 713 nM.
Take `CCn1ncc2c(NC3CCCCC3)c(C(=O)NCCCCCCNc3c4c(nc5ccccc35)CCCC4)cnc21`: the half-maximal inhibitory concentration (IC50) in assay [1] came to 501 nM; against Acetylcholinesterase it was 149 nM; against Cholinesterase, 332 nM.
On the same counts, the results for `CCn1ncc2c(NC3CCCCC3)c(C(=O)NCCCCCNc3c4c(nc5ccc(Cl)cc35)CCCC4)cnc21` are 308 nM, 306 nM and 434 nM.
